What was measured:
Format in all cases: in vivo
[1] = test system: WT and α1bAR-KO mice; experiment: Microdialysis: extracellular DA levels in the nucleus accumbens after systemic D-amphetamine
Experimental: Mice were anaesthetised with sodium pentobarbital (60 mg/kg; Sanofi Santé Animale, France) and placed in a stereotaxic frame (Kopf instruments). The head was positioned by means of a mouse nose clamp adaptator (Kopf model 922) supplemented by rat ear bars placed lightly in the external auditory meatus. A unilateral permanent cannula (CMA/7 guide cannula, Microdialysis AB, Sweden) was implanted into the nucleus accumbens and was secured on the skull with screw and dental cement. The coordinates for the guide cannula tip were antero-posterior (AP): +1.3 relative to bregma, medio-lateral (ML): +0.8, and dorso-ventral (DV): −2,4 mm from dura (Paxinos and Franklin, The mouse brain in stereotaxic coordinates, Academic Press 2001).
The day of the experiment, the microdialysis probe was inserted (CMA/7, Membrane length 2 mm and diameter 0.24 mm, cut-off: 6000 Da, Microdialysis AB, Sweden, for mice or CMA/11 with identical probe characteristics for rats). Artificial CSF (in mM: NaCl: 147; KCl: 3.5; CaCl2: 1; MgCl2: 1.2; NaH2PO4: 1; NaHCO3: 25, pH=7.6) was perfused with a CMA100 microinjection pump through the probe at a rate of 1 μl/min (2 μl/min for rats) via FEP catheter (internal diameter 0.12 mm for mice) or polyethylene catheter (internal diameter 0.3 mm for rats) connected to a fluid swivel. Adequate steady state of DA levels in perfusate samples was reached 2 hours and 20 minutes after probe insertion for mice and rats, and samples were collected in 300 μl vials placed into a refrigerated computer-controlled fraction collector (CMA/170). Samples (20 μl every 20-minutes for mice and 10 μl every 5 minutes for rats) were collected during 100 minutes and 30 minutes for mice and rats, respectively, to determine basal extracellular DA values.
Dialysate samples were completed to 30 μl with the mobile phase and placed into a refrigerated automatic injector (Triathlon, Spark Holland, Emmen, The Netherlands). Twenty five μl of the sample were injected every 15 minutes through a rheodyne valve in the mobile phase circuit. High-performance liquid chromatography was performed with a reverse-phase column (80×4.6 mm, […] particle size, HR-80, ESA INC., Chelmsford, Mass.). Mobile phase (NaH2PO4 75 mM, EDTA 20 μM, octane sulfonic acid 2.75 mM, triethylamine 0.7 mM, acetonitrile 6%, methanol 6%, and pH 5.2) was delivered at 0.7 ml/min by an ESA-580 pump. Electrochemical detection was performed with an ESA coulometric detector (Coulochem II 5100A, with a 5014B analytical cell; Eurosep, Cergy, France). […]
(§1) Results presented are means±S.E.M of data obtained with 5 to 9 animals. […] Data from microdialysis experiments were expressed as a percentage of the respective mean basal value to compensate for inter-subject differences. […]

[2] = test system: WT and α1bAR-KO mice; experiment: Locomotor activity after systemic D-amphetamine during microdialysis experiments; conditions: 120 minutes after injection
Experimental: (§2) Mice were introduced in a circular corridor (4.5 cm width, 17 cm external diameter) crossed by four infrared beams (1.5 cm above the base) placed at every 90° (Imetronic, Pessac, France). The locomotor activity was counted when animals interrupted two successive beams and, thus, had traveled ¼ of the circular corridor. In each session, the spontaneous activity was recorded for 90 minutes, before mice received either saline or drugs. Their activity was recorded for an additional 60 minutes or 120 minutes period. The first session was a session of habituation to the experimental procedure during which animals received saline (˜3 ml/kg, i.p.). The locomotor response to a drug administration was measured on the following day. Tests were performed between 12:00 and 6:00 p.m. in stable conditions of temperature and humidity.
Results presented are means±S.E.M of data obtained with 5 to 9 animals. Statistical analysis was performed using Graph Pad Prism 3.0 software, (San Diego, Calif.). Data from microdialysis experiments were expressed as a percentage of the respective mean basal value to compensate for inter-subject differences. […] LogEC50's were compared after fitting curves with a Student's t-test. Pharmacological treatments correspond to independent groups of animals. Significant differences were set at p<0.05.

[3] = test system: WT and α1b-AR KO mice; experiment: Locomotor sensitization induced by repeated drug administration
Experimental: Animals spent 90 minutes in the experimental apparatus, received a saline injection and were replaced in the apparatus for 60 minutes. […] Four similar sessions took place every other day. The sixth session took place after a 10-day withdrawal. Locomotor responses measured during the first hour following each injection are presented in function of the number of injections and slope values. N=6 to 15 animals per group.
N=6 to 12 animals per group. […] FIG. 6B represents the time course of the locomotor responses measured every 5 minutes.
as §2
Data were analyzed with Student's t-test or analysis of variance. For behavioral sensitization experiments, correlation between the number of drug injections and the amplitude of the locomotor responses was analyzed with linear regression and the influence of genotype on this correlation with an analysis of covariance. Genotype and prazosin treatments were between-subjects factors. […] Differences were considered significant when p<0.05.
The rate of sensitization was evaluated by determining the slope of the “number of injections/response” curve (FIG. 5).

[4] = test system: Sprague-Dawley rats; experiment: Local perfusion (reverse dialysis) of D-amphetamine in the nucleus accumbens, rats; conditions: read-out: EC50 of DA release (extracellular DA levels)
Experimental: Extracellular DA levels are expressed in percent of basal DA values (3.50±0.021 and 4.71±0.015 pg DA per 20 minutes for mice and rats, respectively).
Rats were anesthetised with sodium pentobarbital (60 mg/kg; Sanofi Santé Animale, France). A unilateral permanent cannula (CMA/11 guide cannula, Microdialysis AB, Sweden) was implanted into the nucleus accumbens. The coordinates for the guide cannula tip were antero-posterior (AP): +1.7 relative to bregma, medio-lateral (ML): +1.1, and dorso-ventral (DV): −5.7 mm from dura (Paxinos and Watson, Ann. Rev. Pharmacol. Toxicol. 32:63(−77, 1986). After surgery, animals were placed in individual plastic cages and allowed to recover for at least 4 days.
The day of the experiment, the microdialysis probe was inserted (CMA/7, Membrane length 2 mm and diameter 0.24 mm, cut-off: 6000 Da, Microdialysis AB, Sweden, for mice or CMA/11 with identical probe characteristics for rats). […]
as §1

[5] = test system: WT and α1b-AR KO mice; experiment: Locomotor activity in circular corridor after acute drug injection; conditions: for locomotor activity: i.p., different doses
Experimental: FIG. 2 is a series of dose response graphs that depicts the results of locomotor response to novelty, saline, scopolamine and chloro-APB experiments in WT and α1b-AR KO mice. […] Animals were placed in the experimental apparatus for 90 minutes, received a saline injection and were replaced in the apparatus for 60 minutes. On the following day, animals were placed in the experimental apparatus for 90 minutes, they received an intraperitoneal injection of either saline or scopolamine (1 mg/kg) and their locomotor response was measured every 5 minutes for 60 minutes. FIG. 2D represents the results of locomotor response to chloro-APB; animals were placed in the experimental apparatus for 90 minutes, received a saline injection and were replaced in the apparatus for 60 minutes. On the following days, animals were placed in the experimental apparatus for 90 minutes, they received an intraperitoneal injection of chioro-APB and their locomotor response was measured every 5 minutes for 60 minutes. Several doses of chloro-APB were tested on consecutive days in a random order.
Independent groups of animals were used for each treatment to avoid eventual behavioral sensitization (N=6-16 per group).
as §2

[6] = test system: C57BL6/J mice; experiment: Local perfusion (reverse dialysis) of D-amphetamine in the nucleus accumbens, mice
Experimental: Dialysate samples were completed to 30 μl with the mobile phase and placed into a refrigerated automatic injector (Triathlon, Spark Holland, Emmen, The Netherlands). Twenty five μl of the sample were injected every 15 minutes through a rheodyne valve in the mobile phase circuit. High-performance liquid chromatography was performed with a reverse-phase column (80×4.6 mm, 3 μM particle size, HR-80, ESA INC., Chelmsford, Mass.). Mobile phase (NaH2PO4 75 mM, EDTA 20 μM, octane sulfonic acid 2.75 mM, triethylamine 0.7 mM, acetonitrile 6%, methanol 6%, and pH 5.2) was delivered at 0.7 ml/min by an ESA-580 pump. […]

[7] = α1bAR-KO mice, D-amphetamine 3 mg/kg

SMILES: C[C@H](N)Cc1ccccc1.C[C@H](N)Cc1ccccc1.O=S(=O)(O)O [D-amphetamine, D-amphetamine sulfate]
- extracellular DA levels in the nucleus accumbens ([1]; WT mice, D-amphetamine 3 mg/kg i.p.): enhanced extracellular DA levels
- extracellular DA levels in the nucleus accumbens ([1]; WT mice, D-amphetamine 6 mg/kg i.p.): enhanced extracellular DA levels
- extracellular DA levels in the nucleus accumbens [1, 7]: did not modify basal extracellular DA levels
- mean increase in extracellular DA levels in the nucleus accumbens ([1]; α1bAR-KO mice, D-amphetamine 6 mg/kg, vs basal): +25%
- locomotor hyperactivity ([2]; WT mice, D-amphetamine 3 mg/kg): 1352±389
- locomotor hyperactivity ([2]; WT mice, D-amphetamine 6 mg/kg): 2758±199
- locomotor hyperactivity [2, 7]: 219±62
- locomotor hyperactivity ([2]; α1bAR-KO mice, D-amphetamine 6 mg/kg): 734±184
- rate of sensitization: slope of the number of injections/response curve ([3]; WT mice, D-amphetamine 1 mg/kg): 179.8±69.1
- rate of sensitization: slope of the number of injections/response curve ([3]; WT mice, D-amphetamine 2 mg/kg): 265+71
- rate of sensitization: slope of the number of injections/response curve ([3]; α1b-AR KO mice, D-amphetamine 1 mg/kg): 33.4±17.7
- rate of sensitization: slope of the number of injections/response curve ([3]; α1b-AR KO mice, D-amphetamine 2 mg/kg): 104.4±31
- EC50 [4]: 11.8 ± 1.3 µM
- amplitude of locomotor response, α1b-AR KO vs WT mice ([5]; D-amphetamine 2 and 3 mg/kg, cocaine and morphine independent of dose): significantly lower
- locomotor activity ([5]; WT mice): dose-dependent stimulation of locomotor activity
- locomotor activity ([5]; α1b-AR KO mice): also increased locomotor activity
- DA release in WT mice lower than previously found in rats ([6]; 3 μM D-amphetamine, local perfusion in nucleus accumbens, WT mice vs rats (Darracq et al.)): more than 5 fold
- EC50 ([6]; C57BL6/J mice, local perfusion in nucleus accumbens, read-out: EC50 of DA release (extracellular DA levels)): 15.6 ± 1.1 µM
- locomotor hyperactivity on local perfusion ([6]; mice nucleus accumbens, up to 100 μM): did not induce any locomotor hyperactivity

Reference: patent publication US20030217372A1, “Methods of using alpha 1b-adrenergic receptors” (priority 2002, published 2003)
